According to patent US4789543A, “Neutral technetium 99-m complexes useful as radiodiagnostic agents” (E. I. Du Pont de Nemours and Company, priority 1984, dated 1988):

Tests used:
hepatobiliary transit = conditions: commercially available agent, background statement; cited from earlier work
[1] = system: hepatobiliary transit (liver, gall bladder and gastro-intestinal tract); assay: Visualization of hepatobiliary transit by scintillation camera after intravenous injection (rabbit); type: in vivo, male New Zealand Albino rabbit
Method: A lyophylized vial of HEPATOLITE™ (New England Nuclear Corporation's brand of Technetium Tc^99m Disofenin) is labelled with ^99m Tc-pertechnetate in accordance with manufacturer's directions. At least 1 mCi of the labelled preparation is injected intravenously into a 2.5 Kg male New Zealand Albino rabbit. The rabbit is positioned under a Searle Pho-Gamma scintillation camera in such a way that the liver and gastro-intestinal tract are within the field of view.
Greater than 1 mCi of the ^99m Tc-Cl(SO2)-DMPE complex from either Example 1 or 2 is injected into a rabbit as in Example 3.

SMILES: CC(C)c1cccc(C(C)C)c1NC(=O)CN(CC(=O)O)CC(=O)O (99mTc complex, metal not drawn) [Disofenin]
- time to obtain an image of the hepatobiliary transit (hepatobiliary transit): ≤ 30 min
- sequential images from the time of injection ([1]; 2.5 Kg male rabbit, at least 1 mCi i.v.): initial liver uptake with gradual visualization of the gall bladder and gastro-intestinal tract, analogous to the diagnostically efficacious results obtained in clinical studies of normal healthy humans
- time to images of the liver, gall bladder and gastro-intestinal tract (hepatobiliary transit) ([1]; rabbit, > 1 mCi (complex) or at least 1 mCi (Disofenin) i.v., sequential images): about 30 minutes
